Source: publication PMC3328449, “Inhibition of Diacylglycerol–Sensitive TRPC Channels by Synthetic and Natural Steroids” (PLoS ONE, 2012)

Molecular target: T1, mTRPC5 (Mus musculus, UniProt Q9QX29)
T1 construct: expressed in transfected cells
T1 sequence (Q9QX29 1-975): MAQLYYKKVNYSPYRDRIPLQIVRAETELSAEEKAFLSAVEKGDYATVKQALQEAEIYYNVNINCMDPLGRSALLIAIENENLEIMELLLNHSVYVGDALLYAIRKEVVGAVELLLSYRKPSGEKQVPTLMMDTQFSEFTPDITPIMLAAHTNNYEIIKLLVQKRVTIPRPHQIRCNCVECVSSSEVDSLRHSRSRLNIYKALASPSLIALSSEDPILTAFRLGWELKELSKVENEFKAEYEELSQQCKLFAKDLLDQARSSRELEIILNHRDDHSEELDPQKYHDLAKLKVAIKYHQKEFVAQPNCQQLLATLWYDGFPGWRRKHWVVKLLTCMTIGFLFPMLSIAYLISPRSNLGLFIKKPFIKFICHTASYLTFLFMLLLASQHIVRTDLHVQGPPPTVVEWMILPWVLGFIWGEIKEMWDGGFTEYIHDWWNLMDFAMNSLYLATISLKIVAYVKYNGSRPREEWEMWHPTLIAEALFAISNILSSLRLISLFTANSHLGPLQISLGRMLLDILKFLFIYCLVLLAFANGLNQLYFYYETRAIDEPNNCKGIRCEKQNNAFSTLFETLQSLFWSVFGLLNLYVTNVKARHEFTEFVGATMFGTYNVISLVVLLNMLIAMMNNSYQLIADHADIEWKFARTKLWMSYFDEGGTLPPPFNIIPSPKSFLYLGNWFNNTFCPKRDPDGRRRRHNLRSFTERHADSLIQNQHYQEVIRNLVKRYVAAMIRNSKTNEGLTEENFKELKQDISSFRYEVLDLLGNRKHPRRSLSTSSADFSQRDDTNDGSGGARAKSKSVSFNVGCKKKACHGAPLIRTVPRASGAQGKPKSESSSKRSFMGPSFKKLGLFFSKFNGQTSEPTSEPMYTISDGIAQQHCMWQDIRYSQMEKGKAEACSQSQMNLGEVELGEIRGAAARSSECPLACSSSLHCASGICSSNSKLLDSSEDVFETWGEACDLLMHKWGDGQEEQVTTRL
Assay: Trypsin-induced Ca2+ entry, fluo-4 fluorometric imaging plate reader, TRPC5 HEK-FITR cells
Assay type: cell-based
Method: Cells were grown at 37°C in a humidified atmosphere (5% or 7% CO2) under standard cell culture conditions. Stable human embryonic kidney (HEK) cell lines expressing recombinant mTRPC4ß (GenBank accession number AAC05178); mTRPC5 (GenBank accession number NM_009428) or hTRPC6 (GenBank accession number AF080394) under the control of a tetracycline-inducible promoter were generated using the Flp-In T-Rex (FITR) system (Invitrogen, Karlsruhe, Germany). […]
Cells grown to an almost confluent monolayer on black poly-D-lysine coated 96-well plates (Greiner, Frickenhausen, Germany) were washed with standard extracellular solution (140 mM NaCl, 1 mM MgCl2, 5.4 mM KCl, 2 mM CaCl2, 10 mM HEPES, 10 mM glucose, pH 7.35) and stained (30 min, room temperature) with dye solution (2 µM fluo-4 AM, 0.02% pluronic F127, 0.1% bovine serum albumin in standard extracellular solution). […] Fluo-4 fluorescence was excited at 488 nm with an argon laser and measured using a fluorometric imaging plate reader (Molecular Devices, Sunnyvale, USA). […]
TRPC4- and TRPC5-mediated Ca^2+ influx was stimulated by application of trypsin that activates endogenous Gq-coupled protease activated receptors in HEK cells. […] Compound effects were then calculated from the area under the curve and normalized to the Ca^2+ influx into trypsin-stimulated, non-compound-treated cells. […]

CC(=O)[C@H]1CC[C@H]2[C@@H]3CCC4=CC(=O)CC[C@]4(C)[C@H]3CC[C@]12C [progesterone]
IC50 (TRPC5 HEK-FITR cells, fluo-4, 200 nM trypsin, read-out: IC50, inhibition of trypsin-induced Ca2+ entry via TRPC5): 11.8 µM | Hill slope n, inhibition of TRPC5-mediated Ca2+ entry (fit to Hill model): 2.5
